{"source": "patent US7659245B2", "about": "“Macrocylic inhibitors of hepatitis C virus” (Tibotec Pharmaceuticals Ltd, priority 2005, dated 2010)", "key": {"[1]": {"system": "HCV replicons (Huh-7 luc/neo cells, NS3-NS5B regions of HCV type 1b)", "assay": "Replicon assay: inhibition of HCV RNA replication in Huh-Luc cells (luciferase read-out)", "assay_type": "cell-based", "settings": "Hepatitis C virus, Huh-7, 72 h, HCV type 1b replicon, luciferase activity after three days", "experimental": "The in vitro antiviral activity against HCV of the compounds of formula (I) was tested in a cellular HCV replicon system based on Lohmann et al. (1999) Science 285:110-113, with the further modifications described by Krieger et al. (2001) Journal of Virology 75: 4614-4624 (incorporated herein by reference), which is further exemplified in the examples section. This model, while not a complete infection model for HCV, is widely accepted as the most robust and efficient model of autonomous HCV RNA replication currently available. […] It will be appreciated that it is important to distinguish between compounds that specifically interfere with HCV functions from those that exert cytotoxic or cytostatic effects in the HCV replicon model, and as a consequence cause a decrease in HCV RNA or linked reporter enzyme concentration. Assays are known in the field for the evaluation of cellular cytotoxicity based for example on the activity of mitochondrial enzymes using fluorogenic redox dyes such as resazurin. Furthermore, cellular counter screens exist for the evaluation of non-selective inhibition of linked reporter gene activity, such as firefly luciferase. Appropriate cell types can be equipped by stable transfection with a luciferase reporter gene whose expression is dependent on a constitutively active gene promoter, and such cells can be used as a counter-screen to eliminate non-selective inhibitors.\nThe compounds of formula (I) were examined for activity in the inhibition of HCV RNA replication in a cellular assay. […] The cellular assay was based on a bicistronic expression construct, as described by Lohmann et al. (1999) Science vol. 285 pp. 110-113 with modifications described by Krieger et al. (2001) Journal of Virology 75: 4614-4624, in a multi-target screening strategy. In essence, the method was as follows.\nThe assay utilized the stably transfected cell line Huh-7 luc/neo (hereafter referred to as Huh-Luc). This cell line harbors an RNA encoding a bicistronic expression construct comprising the wild type NS3-NS5B regions of HCV type 1b translated from an Internal Ribosome Entry Site (IRES) from encephalomyocarditis virus (EMCV), preceded by a reporter portion (FfL-luciferase), and a selectable marker portion (neo^R, neomycine phosphotransferase). The construct is bordered by 5′ and 3′ NTRs (non-translated regions) from HCV type 1b. Continued culture of the replicon cells in the presence of G418 (neo^R) is dependent on the replication of the HCV RNA. The stably transfected replicon cells that express HCV RNA, which replicates autonomously and to high levels, encoding inter alia luciferase, are used for screening the antiviral compounds.\nThe replicon cells were plated in 384 well plates in the presence of the test and control compounds which were added in various concentrations. Following an incubation of three days, HCV replication was measured by assaying luciferase activity (using standard luciferase assay substrates and reagents and a Perkin Elmer ViewLux™ ultraHTS microplate imager). Replicon cells in the control cultures have high luciferase expression in the absence of any inhibitor. The inhibitory activity of the compound on luciferase activity was monitored on the Huh-Luc cells, enabling a dose-response curve for each test compound. EC50 values were then calculated, which value represents the amount of the compound required to decrease by 50% the level of detected luciferase activity, or more specifically, the ability of the genetically linked HCV replicon RNA to replicate."}, "[2]": {"molecular_target": "full-length hepatitis C NS3 protease enzyme (HCV NS3/4A protease complexes) (Hepatitis C virus genotype 1a, UniProt P27958)", "sequence (P27958 1027-1657, one chain of several)": "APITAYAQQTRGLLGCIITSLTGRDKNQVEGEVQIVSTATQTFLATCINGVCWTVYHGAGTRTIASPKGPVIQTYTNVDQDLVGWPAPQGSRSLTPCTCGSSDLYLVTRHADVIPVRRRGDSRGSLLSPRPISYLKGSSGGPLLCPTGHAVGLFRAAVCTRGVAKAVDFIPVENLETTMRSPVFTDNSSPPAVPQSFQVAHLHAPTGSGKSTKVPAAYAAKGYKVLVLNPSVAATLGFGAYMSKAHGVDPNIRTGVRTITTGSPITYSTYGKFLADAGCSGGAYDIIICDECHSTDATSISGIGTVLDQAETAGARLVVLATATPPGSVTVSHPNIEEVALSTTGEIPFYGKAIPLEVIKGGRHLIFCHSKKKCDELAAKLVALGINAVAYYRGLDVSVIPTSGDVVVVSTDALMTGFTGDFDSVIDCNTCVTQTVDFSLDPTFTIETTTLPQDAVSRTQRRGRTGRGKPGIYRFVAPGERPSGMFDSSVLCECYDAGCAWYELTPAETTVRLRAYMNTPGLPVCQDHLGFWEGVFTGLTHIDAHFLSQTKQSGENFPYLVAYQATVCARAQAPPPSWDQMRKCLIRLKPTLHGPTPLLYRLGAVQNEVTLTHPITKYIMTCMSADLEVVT", "assay": "Inhibition assay (enzymatic assay) of HCV NS3/4A protease", "assay_type": "biochemical", "settings": "enzyme 1 nM, 25 μM NS4A cofactor, 0.5 μM depsipeptide substrate, 30° C., competitive model", "experimental": "The aim of this in vitro assay is to measure the inhibition of HCV NS3/4A protease complexes by the compounds of the present invention. This assay provides an indication of how effective compounds of the present invention would be in inhibiting HCV NS3/4A proteolytic activity.\nThe inhibition of full-length hepatitis C NS3 protease enzyme was measured essentially as described in Poliakov, 2002 Prot Expression & Purification 25 363 371. Briefly, the hydrolysis of a depsipeptide substrate, Ac-DED(Edans)EEAbuψ[COO]ASK(Dabcyl)-NH2 (AnaSpec, San José, USA), was measured spectrofluorometrically in the presence of a peptide cofactor, KKGSVVIVGRIVLSGK (Åke Engström, Department of Medical Biochemistry and Microbiology, Uppsala University, Sweden). [Landro, 1997 #Biochem 36 9340-9348]. The enzyme (1 nM) was incubated in 50 mM HEPES, pH 7.5, 10 mM DTT, 40% glycerol, 0.1% n-octyl-D-glucoside, with 25 μM NS4A cofactor and inhibitor at 30° C. for 10 min, whereupon the reaction was initiated by addition of 0.5 μM substrate. Inhibitors were dissolved in DMSO, sonicated for 30 sec. and vortexed. The solutions were stored at −20° C. between measurements.\nThe final concentration of DMSO in the assay sample was adjusted to 3.3%. The rate of hydrolysis was corrected for inner filter effects according to published procedures. [Liu, 1999 Analytical Biochemistry 267 331-335]. Ki values were estimated by non-linear regression analysis (GraFit, Erithacus Software, Staines, MX, UK), using a model for competitive inhibition and a fixed value for Km (0.15 μM). A minimum of two replicates was performed for all measurements."}}}
{"smiles": "CCOc1nc(O[C@@H]2C[C@H]3C(=O)N[C@]4(C(=O)NS(=O)(=O)C5CC5)C[C@H]4/C=C\\CCCCN(C)C(=O)[C@@H]3C2)c2ccc(OC)c(C)c2n1", "note": "[Compound 150, N-[17-[2-Ethoxy-7-methoxy-8-methylquinazolin-4-yloxy]-13-methyl-2,14-dioxo-3,13-diazatricyclo[13.3.0.0^4,6]octadec-7-ene-4-carbonyl](cyclopropyl)sulfonamide]", "values": [{"measurement": "EC50", "setting": "[1]", "value": "0.5 to 199", "unit": "nM"}, {"measurement": "Ki", "setting": "[2]", "value": "0.1 to 4.9", "unit": "nM"}]}
{"smiles": "COc1ccc2c(O[C@H]3CC4C(=O)N(C)CCCC/C=C\\[C@@H]5C[C@@]5(C(=O)NS(=O)(=O)C5CC5)NC(=O)[C@@H]4C3)nc(-c3ccc(F)cc3)nc2c1C", "note": "(stereo partly shown) [Compound 154]", "values": [{"measurement": "EC50", "setting": "[1]", "value": "0.5 to 199", "unit": "nM"}, {"measurement": "Ki", "setting": "[2]", "value": "0.1 to 4.9", "unit": "nM"}]}
{"smiles": "COc1ccc2c(O[C@@H]3C[C@H]4C(=O)N[C@]5(C(=O)NS(=O)(=O)C6CC6)C[C@H]5/C=C\\CCCCN(C)C(=O)[C@@H]4C3)nc(-c3cccc(F)c3)nc2c1C", "note": "[Compound 160, Cyclopropanesulfonic acid {17-[2-(3-fluoro-phenyl)-7-methoxy-8-methyl-quinazolin-4-yloxy]-13-methyl-2,14-dioxo-3,13-diaza-tricyclo[13.3.0.0*4,6*]octadec-7-ene-4-carbonyl}-amide]", "values": [{"measurement": "EC50", "setting": "[1]", "value": "0.5 to 199", "unit": "nM"}, {"measurement": "Ki", "setting": "[2]", "value": "0.1 to 4.9", "unit": "nM"}]}
{"smiles": "COc1ccc2c(O[C@@H]3C[C@H]4C(=O)N[C@]5(C(=O)NS(=O)(=O)C6(C)CC6)C[C@H]5/C=C\\CCCCN(C)C(=O)[C@@H]4C3)nc(-c3cccc(F)c3)nc2c1C", "note": "[Compound 161, 1-Methyl-cyclopropanesulfonic acid {17-[2-(3-fluoro-phenyl)-7-methoxy-8-methyl-quinazolin-4-yloxy]-13-methyl-2,14-dioxo-3,13-diazatricyclo[13.3.0.0*4,6*]octadec-7-ene-4-carbonyl}-amide]", "values": [{"measurement": "EC50", "setting": "[1]", "value": "0.5 to 199", "unit": "nM"}, {"measurement": "Ki", "setting": "[2]", "value": "0.1 to 4.9", "unit": "nM"}]}
{"smiles": "COc1ccc2c(O[C@@H]3C[C@H]4C(=O)N[C@]5(C(=O)NS(=O)(=O)C(C)C)C[C@H]5/C=C\\CCCCN(C)C(=O)[C@@H]4C3)nc(-c3cccc(F)c3)nc2c1C", "note": "[Compound 162, Propane-2-sulfonic acid {17-[2-(3-fluoro-phenyl)-7-methoxy-8-methyl-quinazolin-4-yloxy]-13-methyl-2,14-dioxo-3,13-diazatricyclo[13.3.0.0*4,6*]octadec-7-ene-4-carbonyl}-amide]", "values": [{"measurement": "EC50", "setting": "[1]", "value": "200 to 990", "unit": "nM"}, {"measurement": "Ki", "setting": "[2]", "value": "0.1 to 4.9", "unit": "nM"}]}
{"smiles": "COc1ccc2c(O[C@@H]3C[C@H]4C(=O)N[C@]5(C(=O)NS(=O)(=O)C6CC6)C[C@H]5/C=C\\CCCCN(C)C(=O)N4C3)nc(-c3cccc(F)c3)nc2c1C", "note": "[Compound 165, Cyclopropanesulfonic acid {17-[2-(3-fluoro-phenyl)-7-methoxy-8-methyl-quinazolin-4-yloxy]-13-methyl-2,14-dioxo-3,13,15-triaza-tricyclo[13.3.0.0*4,6*]octadec-7-ene-4-carbonyl}-amide]", "values": [{"measurement": "EC50", "setting": "[1]", "value": "0.5 to 199", "unit": "nM"}, {"measurement": "Ki", "setting": "[2]", "value": "0.1 to 4.9", "unit": "nM"}]}
{"smiles": "COc1ccc2c(O[C@@H]3C[C@H]4C(=O)N[C@]5(C(=O)NS(=O)(=O)C6CC6)C[C@H]5/C=C\\CCCCN(C)C(=O)[C@@H]4C3)nc(-c3cc(F)cc(F)c3)nc2c1C", "note": "[Compound 170, Cyclopropanesulfonic acid {17-[2-(3,5-difluoro-phenyl)-7-methoxy-8-methyl-quinazolin-4-yloxy]-13-methyl-2,14-dioxo-3,13-diaza-tricyclo[13.3.0.0*4,6*]octadec-7-ene-4-carbonyl}-amide]", "values": [{"measurement": "EC50", "setting": "[1]", "value": "0.5 to 199", "unit": "nM"}, {"measurement": "Ki", "setting": "[2]", "value": "5 to 99.9", "unit": "nM"}]}
{"smiles": "COc1ccc2c(O[C@@H]3C[C@H]4C(=O)N[C@]5(C(=O)NS(=O)(=O)C6CC6)C[C@H]5/C=C\\CCCCCNC(=O)N4C3)nc(-c3ccccc3)nc2c1C", "note": "[Compound 174, Cyclopropanesulfonic acid [18-(7-methoxy-8-methyl-2-phenyl-quinazolin-4-yloxy)-2,15-dioxo-3,14,16-triaza-tricyclo[14.3.0.0*4,6*]nonadec-7-ene-4-carbonyl]-amide]", "values": [{"measurement": "EC50", "setting": "[1]", "value": "0.5 to 199", "unit": "nM"}, {"measurement": "Ki", "setting": "[2]", "value": "0.1 to 4.9", "unit": "nM"}]}
